After the bases stand the sugars from the 5' end (letter, count) and the backbone: PS all phosphorothioate, else s phosphorothioate and o phosphodiester by linkage. Methylation of C is not given here. k = constrained ethyl (cEt); d = 2'-deoxy (DNA)

One data set concerns the target IRF4. As to conditions: ASO, MM.1R, 1 µM.
Turning to CATTAGCAATTAGCTC (sugars k3 d10 k3, PS), the target mRNA inhibition was -37%.
Same read-out and setting: under CCACAACTCTCGCCTC (sugars k3 d10 k3, PS) stands -9%; under CCACAAGCAGTGATGT (sugars k3 d10 k3, PS), 16%.
For CCCATATACATTGAGG (sugars k3 d10 k3, PS), the target mRNA inhibition amounted to 16%.
Still for that read-out and setting: the figure for CCCCGAGCTGCACACG (sugars k3 d10 k3, PS) is -5%.
Still for that read-out and setting: the figure for CCCCTTAGGAACGAAG (sugars k3 d10 k3, PS) is -6%.
Consider CCCGACCCTCCCCAAC (sugars k3 d10 k3, PS), for which the target mRNA inhibition was -35%.
For the sequence CCCGGCCGATCATCAA (sugars k3 d10 k3, PS), the target mRNA inhibition was 23%.
As for CCCTACCTTTTTTGGC (sugars k3 d10 k3, PS), the target mRNA inhibition was -7%.

Still in this data set, the particulars now being: ASO, SK-MEL-28, 4 µM.
In the case of CATGTAGTTGTGAACC (sugars k3 d10 k3, PS), the target mRNA inhibition was 27%.
CATTAAAGAGTGGTAC (sugars k3 d10 k3, PS): the target mRNA inhibition is -3%.
For the sequence CATTCCCTAGGTCATA (sugars k3 d10 k3, PS), the target mRNA inhibition came out at 54%.
Same read-out and setting: the figure for CATTTCATTTAATGTC (sugars k4 d8 k4, PS) is 44%; for CATTTTATGGACCACG (sugars k3 d10 k3, PS) it is 62%; for CCAAAGCATAGAGTCA (sugars k3 d10 k3, PS) it is 58%.
In the case of CCAAAGGCTCCCGACA (sugars k3 d10 k3, PS), the target mRNA inhibition came to 29%.
Still for that read-out and setting: under CCAAATGACTTAGTCA (sugars k3 d10 k3, PS) stands 51%; under CCAAGATCGAGCGGTG (sugars k3 d10 k3, PS), 37%.
As to CCAAGGCTACAGGCAC (sugars k3 d10 k3, PS), the target mRNA inhibition was found to be 63%.
As to CCAAGTAATTTTAAGG (sugars k3 d10 k3, PS), the target mRNA inhibition is 34%.
Same read-out and setting: the figure for CCAATAGTCTAGCTGG (sugars k3 d10 k3, PS) is 19%; for CCACAACTGCAGTTTG (sugars k3 d10 k3, PS) it is 23%; for CCACAAGAAAGAGACC (sugars k3 d10 k3, PS) it is -9%.
Still for that read-out and setting: the figure for CCAGGGTGAGCTGCTT (sugars k3 d10 k3, PS) is 31%; for CCAGGTTCATGCCCCG (sugars k3 d10 k3, PS) it is 54%.
Take CCATATACATTGAGGC (sugars k3 d10 k3, PS): the target mRNA inhibition was found to be 44%.
On the same count and under the same terms, under CCCAAAGAGAGTGGGT (sugars k3 d10 k3, PS) stands 0%.
Take CCCAAGCCTTGAAGAG (sugars k3 d10 k3, PS): the target mRNA inhibition was 6%.
In the case of CCCACACCAGCCCGGG (sugars k4 d8 k4, PS), the target mRNA inhibition was -6%.
Same read-out and setting: the figure for CCCACATGTCCCGTGG (sugars k3 d10 k3, PS) is 5%; for CCCACGAAGGGCAGTG (sugars k3 d10 k3, PS) it is 35%.
Turning to CCCACGGACGGAGGCG (sugars k3 d10 k3, PS), the target mRNA inhibition was -9%.
For CCCCAAAATACTTTGC (sugars k3 d10 k3, PS), the target mRNA inhibition is 100%.
The same measure, in the same setting: the figure for CCCCAGTCTACTGCTG (sugars k3 d10 k3, PS) is 47%; for CCCCGAATAGGACCCC (sugars k3 d10 k3, PS) it is 56%.
Still for that read-out and setting: the figure for CCCCGCGGTCCCGCTG (sugars k3 d10 k3, PS) is 41%; for CCCCGGAAGAAGGCAC (sugars k3 d10 k3, PS) it is 36%; for CCCTAGATAACATGAG (sugars k3 d10 k3, PS) it is 17%.
Same read-out and setting: under CCCTATCACTGCCAAG (sugars k3 d10 k3, PS) stands 38%.
